The text below walks through data of patent US20230165851A1, “6'-METHOXYCINCHONAN-9-OLS FOR THE TREATMENT OF CORONAVIRAL INFECTIONS” (Immunologik GmbH, priority 2020, published 2023).

Where a name gives a salt, the structure may show the parent alone. Read-outs that look alike come from different tables or passages of the source.

Data set [1] deals with SARS-CoV-2. It counts as cell-based. The following applies: infected Vero-B4 cells, 3 dpi.
A further data set has as its system Vero-B4 cells. Kind of data set: WST-1 cell viability (cytotoxicity) assay in non-infected Vero-B4 cells. Particulars: 3 days; for toxic effect (WST assay): antivirally effective concentrations. The protocol:
Toxicity was assessed with a WST assay. Herein viable cells with an intact mitochondrial succinate-tetrazolium dehydrogenase system effect an enzymatic conversion of the feebly red tetrazolium salt WST-1 (4-[3-(4-iodophenyl)-2-(4-nitrophenyl)-2H-5-tetrazolio]-1,3 benzene disulfonate) into dark red formazan. This color change can be measured photometrically in a spectrophotometer. Thus, the WST assay is a very sensitive method for measuring the toxicity of substances on the cell metabolism.
In FIG. 4 the percentage of viable cells is depicted in comparison to untreated cells. The value for untreated cells was set to 100%. 1 μM staurosporine (an indolocarbazole compound from Streptomyces staurosporeus, an apoptosis inducer) was used as positive control.
In FIG. 8 the percentage of viable cells is depicted in comparison to untreated cells wherein the value for untreated cells was set to 100%. Again 1 μM staurosporine was used as positive control.
(Tetrazolium dyes change colour on reduction, which living cells bring about.)

Data set [2] has as its system SARS-CoV-2. It counts as cell-based. Particulars: infected Vero-B4 cells, 3 dpi; for inhibition of SARS-CoV-2 protein generation compared with same/respective concentration of chloroquine or hydroxychloroquine (densitometry): comparators at 10 μM.
Setting [3] is: quinine sulfate series up to 100 μM.

Take `C=C[C@H]1C[N@@]2CC[C@H]1C[C@@H]2[C@@H](O)c1ccnc2ccc(OC)cc12` [quinidine sulfate]: the “reduction of SARS-CoV-2 RNA copies (qRT-PCR)” value is “dose-dependent reduction” in the data set with SARS-CoV-2 [1] (2.5 μM, 5 μM, 10 μM and 20 μM); “approximately 82%” in the data set with SARS-CoV-2 [1] (10 μM); “approximately 97%” with SARS-CoV-2 [1] (20 μM). Further, the “reduction compared with 10 μM chloroquine or 10 μM hydroxychloroquine (qRT-PCR)” value with SARS-CoV-2 [1] (20 μM) is reported as “significant better reduction”. For the same compound, in the data set on Vero-B4 cells, the “toxic effect (WST assay)” value is “did not display any significant toxic effect”. For the same compound, the “concentration up to which no toxic effect was detectable (WST assay)” value in the data set on Vero-B4 cells (tested 2.5 to 80 μM) was “Up to 80 μM”. Also, the “block of virus replication (Western blot)” value in the data set on SARS-CoV-2 [2] (20 μM) is “nearly complete block of virus replication”. Further, the “inhibition of SARS-CoV-2 replication (Western blot)” value in the data set on SARS-CoV-2 [2] (2.5, 5, 10 and 20 μM) is on record as “dose-dependent inhibition”. Moreover, in the data set with SARS-CoV-2 [2] (2.5 to 20 μM), the “generation of SARS-CoV-2 proteins (densitometric evaluation of nucleoprotein in virus fraction)” value was “inhibited in a dose-dependent manner”. In addition, the “inhibition of SARS-CoV-2 protein generation compared with same/respective concentration of chloroquine or hydroxychloroquine (densitometry)” value in the data set with SARS-CoV-2 [2] was “higher percentage”. In the data set with SARS-CoV-2 [2] (quinidine sulfate series up to 20 μM), the “reduction compared with 10 μM chloroquine or 10 μM hydroxychloroquine (Western blot)” value was “clearly higher”.
On to `C=C[C@H]1C[N@@]2CC[C@H]1C[C@H]2[C@H](O)c1ccnc2ccc(OC)cc12` [quinine sulfate], for which the “reduction in the amount of SARS-CoV-2 RNA copies (qRT-PCR)” value in the data set with SARS-CoV-2 [1] (100 nM, 1 μM, 10 μM and 100 μM) is recorded as “dose-dependent reduction”. Besides, in the data set on SARS-CoV-2 [1] (10 μM), the “reduction of SARS-CoV-2 RNA copies (qRT-PCR)” value is on record as “approximately 85%”. Also, the “block of virus spread (qRT-PCR)” value in the data set with SARS-CoV-2 [1] (100 μM) was “complete block of virus spread”. Besides, in the data set with SARS-CoV-2 [1] (setting [3]), the “reduction compared with 10 μM chloroquine or 10 μM hydroxychloroquine (qRT-PCR)” value is recorded as “significantly higher”. Also, the “toxic effect (WST assay)” value in the data set on Vero-B4 cells is given as “did not display any significant toxic effect”. Further, the “generation of SARS-CoV-2 proteins (densitometric evaluation of nucleoprotein in virus fraction)” value in the data set on SARS-CoV-2 [2] (100 nM to 100 μM) was “inhibited in a dose-dependent manner”. Also, the “inhibition of SARS-CoV-2 replication (Western blot)” value in the data set with SARS-CoV-2 [2] (100 nM, 1 μM, 10 μM and 100 μM) was “dose-dependent inhibition”. The “block of virus replication (Western blot)” value in the data set on SARS-CoV-2 [2] (100 μM) is listed as “complete block of virus replication”. Besides, the “inhibition of SARS-CoV-2 protein generation compared with same/respective concentration of chloroquine or hydroxychloroquine (densitometry)” value in the data set on SARS-CoV-2 [2] was “higher percentage”. In addition, the “reduction compared with 10 μM chloroquine or 10 μM hydroxychloroquine (Western blot)” value in the data set on SARS-CoV-2 [2] (setting [3]) is “significantly higher”.
